Assay results taken from patent US20250205157A1, “TOPICAL RUXOLITINIB FOAM” (Incyte Corporation, priority 2023, published 2025).

Key:
[1] = Chemical stability of foam formulations by HPLC (assay % LC, total impurities); type: physicochemical; conditions: for chemical stability, in words: to 3 months, 25° C./60% RH and 40° C./75% RH
Excerpt: The protocol used for determining the purity was a liquid chromatography (LC) method. The LC method is provided below.
This method is for the determination of Ruxolitinib Phosphate in foam formulations that contain Ruxolitinib Phosphate as active pharmaceutical ingredient (API). The method is suitable for the determination of active content in stability screening samples. The method can also be used to estimate the level of major degradants of Ruxolitinib Phosphate.
Foam formulations contain about 0.5% Ruxolitinib base (API added as Ruxolitinib Phosphate)
Weigh accurately about 500 mg of sample into a tared 25 mL volumetric flask.
Equilibrate the chromatographic system with starting mobile phase composition until a stable baseline is obtained. The following gradient (Table 12) at a flow rate of 1.0-1.5 mL/min is used: […]
Using the instrument conditions, equilibrate the chromatographic system with mobile phase. Record the chromatograms of Ruxolitinib Phosphate peak for the standard and sample solutions. The retention time of principal peak in the HPLC chromatogram of the sample should correspond with the retention time of the principal peak produced by Ruxolitinib Phosphate Standard Solution. The retention time difference between sample and standard should not be more than 5%.

[2] = Microscopic examination of the foam samples (drug recrystallisation); type: physicochemical
alopecia = conditions: 8 mg and 12 mg BID orally; cited from earlier work
[3] = Minipig plasma concentrations / toxicokinetic evaluation after topical foam; conditions: topical application of foam formulations
[4] = Solubility of ruxolitinib phosphate in organic media; type: physicochemical; conditions: for Reported Solubility % w/w, ruxolitinib phosphate: ambient temperature
Experimental: Under pre-formulation studies, the solubility of ruxolitinib phosphate was evaluated in organic media over the course of three days at ambient temperature.

[5] = Solubility of ruxolitinib phosphate in ethanol-water solutions and hydroethanolic foamable carrier components; type: physicochemical
Experimental: Based on the good solubility of ruxolitinib phosphate in hydroethanolic mixtures, the solubility of ruxolitinib phosphate in a hydroethanolic base formulation was studied. Utilizing Method A (Materials and Methods), the formulations in Table 23 were prepared. […] PG was added as a penetration enhancer to facilitate better skin permeation of the API from application of the foam.

[6] = 1,3-Dimethyl-2-Imadolidinone (DMI) (neat)
[7] = Isopropyl Myristate (IPM) (neat)

Question: With [2H]C1([2H])C([C@@H](CC#N)n2cc(-c3ncnc4[nH]ccc34)cn2)C([2H])([2H])C([2H])([2H])C1([2H])[2H] [Deuruxolitinib, (3R)-3-(2,2,3,3,4,4,5,5-D8) cyclopentyl-3-[4-(7H-pyrrolo[2,3-d]pyrimidin-4-yl)-1H-pyrazol-1-yl]propanenitrile] as the molecule, how does the impurities ([1]; 3-months, 25° C. and 40° C., method detection limit) read?
Answer: Its impurities is less than 0.05 % area.

Question: And the “chemical stability, in words” value [1]?
Answer: Its value is “chemically stable”.

Question: What about the “drug recrystallisation / solubility in the foam” value [2] of the same molecule?
Answer: The value was “remained soluble in the foam formulation”.

Question: And the clinical endpoint (alopecia)?
Answer: The clinical endpoint was “met the clinical endpoint”.

Question: What about the “systemic exposure (plasma concentrations)” value [3] of the same molecule?
Answer: Its value is “did not indicate therapeutic relevant concentrations”.

Question: For N#CC[C@H](C1CCCC1)n1cc(-c2ncnc3[nH]ccc23)cn1 [Ruxolitinib phosphate], which “Calculated Solubility, % w/w in base form” value (from here on “Calculated Solubility, % w/w”) [4, 6] is on record?
Answer: Its value is 0.168 % w/w.

Question: What about the “Reported Solubility % w/w, ruxolitinib phosphate” value (“Reported Solubility % w/w” for short) [4, 6] of the same molecule?
Answer: Its value is 0.22 % w/w.

Question: What about the “Calculated Solubility, % w/w” value ([4]; Castor Oil (neat)) of the same molecule?
Answer: The value was 0.028 % w/w.

Question: What about the “Reported Solubility % w/w” value ([4]; Castor Oil (neat)) of the same molecule?
Answer: The value was 0.037 % w/w.

Question: And the “Calculated Solubility, % w/w” value ([4]; DIPA (neat))?
Answer: Its value is less than 0.01 % w/w.

Question: What about the “Reported Solubility % w/w” value ([4]; DIPA (neat)) of the same molecule?
Answer: The value was less than 0.01 % w/w.

Question: And the “Calculated Solubility, % w/w” value ([4]; Ethyl Oleate (neat))?
Answer: The value was less than 0.01 % w/w.

Question: And the “Reported Solubility % w/w” value ([4]; Ethyl Oleate (neat))?
Answer: The value was less than 0.01 % w/w.

Question: What about the “Calculated Solubility, % w/w” value ([4]; Etocas 35 (neat)) of the same molecule?
Answer: Its value is 0.729 % w/w.

Question: And the “Reported Solubility % w/w” value ([4]; Etocas 35 (neat))?
Answer: The value was 0.962 % w/w.

Question: And the “Calculated Solubility, % w/w” value ([4]; GTCC (neat))?
Answer: Its value is 0.015 % w/w.

Question: What about the “Reported Solubility % w/w” value ([4]; GTCC (neat)) of the same molecule?
Answer: The value was 0.02 % w/w.

Question: What about the “Calculated Solubility, % w/w” value [4, 7] of the same molecule?
Answer: The value was less than 0.01 % w/w.

Question: What about the “Reported Solubility % w/w” value [4, 7] of the same molecule?
Answer: The value was less than 0.01 % w/w.

Question: And the “Calculated Solubility, % w/w” value ([4]; Light Mineral Oil (LMO) (neat))?
Answer: The value was less than 0.01 % w/w.

Question: What about the “Reported Solubility % w/w” value ([4]; Light Mineral Oil (LMO) (neat)) of the same molecule?
Answer: Its value is less than 0.01 % w/w.

Question: And the “Calculated Solubility, % w/w” value ([4]; Octadodecabol (ODD) (neat))?
Answer: The value was 0.022 % w/w.

Question: And the “Reported Solubility % w/w” value ([4]; Octadodecabol (ODD) (neat))?
Answer: Its value is 0.029 % w/w.

Question: And the “Calculated Solubility, % w/w” value ([4]; Oleth-3 (neat))?
Answer: Its value is 0.513 % w/w.

Question: What about the “Reported Solubility % w/w” value ([4]; Oleth-3 (neat)) of the same molecule?
Answer: The value was 0.677 % w/w.

Question: What about the “Calculated Solubility, % w/w” value ([4]; Oleyl alcohol (neat)) of the same molecule?
Answer: Its value is 0.052 % w/w.

Question: And the “Reported Solubility % w/w” value ([4]; Oleyl alcohol (neat), no propellant)?
Answer: The value was 0.068 % w/w.

Question: And the “Calculated Solubility, % w/w” value ([4]; PEG 300 (neat))?
Answer: The value was 1.169 % w/w.

Question: What about the “Reported Solubility % w/w” value ([4]; PEG 300 (neat)) of the same molecule?
Answer: The value was 1.543 % w/w.

Question: What about the “Calculated Solubility, % w/w” value ([4]; PEG400 (neat)) of the same molecule?
Answer: The value was 0.846 % w/w.

Question: And the “Reported Solubility % w/w” value ([4]; PEG400 (neat))?
Answer: The value was 1.117 % w/w.

Question: And the “Calculated Solubility, % w/w” value ([4]; Polysorabte 80 (neat))?
Answer: Its value is 0.920 % w/w.

Question: What about the “Reported Solubility % w/w” value ([4]; Polysorabte 80 (neat)) of the same molecule?
Answer: The value was 1.214 % w/w.

Question: What about the “Calculated Solubility, % w/w” value ([4]; Polysorbate 20 (neat)) of the same molecule?
Answer: Its value is 0.957 % w/w.

Question: And the “Reported Solubility % w/w” value ([4]; Polysorbate 20 (neat))?
Answer: Its value is 1.263 % w/w.

Question: What about the “Calculated Solubility, % w/w” value ([4]; Propylene Glycol (PG) (neat)) of the same molecule?
Answer: Its value is 1.651 % w/w.

Question: And the “Reported Solubility % w/w” value ([4]; Propylene Glycol (PG) (neat))?
Answer: Its value is 2.179 % w/w.

Question: And the “Calculated Solubility, % w/w” value ([4]; Span 20 (neat))?
Answer: The value was 0.877 % w/w.

Question: What about the “Reported Solubility % w/w” value ([4]; Span 20 (neat)) of the same molecule?
Answer: Its value is 1.157 % w/w.

Question: And the “Calculated Solubility, % w/w” value ([4]; Transcutol-P (neat))?
Answer: The value was 0.927 % w/w.

Question: And the “Reported Solubility % w/w” value ([4]; Transcutol-P (neat))?
Answer: Its value is 1.223 % w/w.

Question: And the “amount dissolved in hydroethanolic base” value ([5]; base having 60% ethanol with and without additional propylene glycol)?
Answer: The value was “approximately 3 % (w/w) on a free base basis”.

Question: And the “solubility (loading level) in ethanol:water” value ([5]; mixtures of 60:40 or 40:60 ethanol:water)?
Answer: The value was ~4 % on a free base basis (w/w).

Question: With N#CC[C@H](C1CCCC1)n1cc(-c2ncnc3[nH]ccc23)cn1 [Ruxolitinib] as the molecule, how does the “chemical stability, in words” value [1] read?
Answer: The value was “chemically stable”.

Question: What about the “systemic exposure (plasma concentrations)” value [3] of the same molecule?
Answer: The value was “did not indicate therapeutic relevant concentrations”.
